Results on 2 compounds are retold here after article PMC9967564, “Identification of Bioactive Peptides from a Laminaria digitata Protein Hydrolysate Using In Silico and In Vitro Methods to Identify Angiotensin-1-Converting Enzyme (ACE-1) Inhibitory Peptides” (Marine Drugs, 2023).

For one test, the system named is ACE-II. Details: method as in PMID 24131339. The conditions noted are these: negative control in studies on marine cryptides; ref [49]; read-out: IC50 for ACE-II inhibition; cited from earlier work.
A further test has as its target T1, ACE-1 (Homo sapiens, UniProt P12821).
T1 construct: purchased Cambridge BioSciences (Cambridge, UK)
In kind it is biochemical.

pIC50: −log10 of the molar value.

T1 sequence (P12821 30-1306): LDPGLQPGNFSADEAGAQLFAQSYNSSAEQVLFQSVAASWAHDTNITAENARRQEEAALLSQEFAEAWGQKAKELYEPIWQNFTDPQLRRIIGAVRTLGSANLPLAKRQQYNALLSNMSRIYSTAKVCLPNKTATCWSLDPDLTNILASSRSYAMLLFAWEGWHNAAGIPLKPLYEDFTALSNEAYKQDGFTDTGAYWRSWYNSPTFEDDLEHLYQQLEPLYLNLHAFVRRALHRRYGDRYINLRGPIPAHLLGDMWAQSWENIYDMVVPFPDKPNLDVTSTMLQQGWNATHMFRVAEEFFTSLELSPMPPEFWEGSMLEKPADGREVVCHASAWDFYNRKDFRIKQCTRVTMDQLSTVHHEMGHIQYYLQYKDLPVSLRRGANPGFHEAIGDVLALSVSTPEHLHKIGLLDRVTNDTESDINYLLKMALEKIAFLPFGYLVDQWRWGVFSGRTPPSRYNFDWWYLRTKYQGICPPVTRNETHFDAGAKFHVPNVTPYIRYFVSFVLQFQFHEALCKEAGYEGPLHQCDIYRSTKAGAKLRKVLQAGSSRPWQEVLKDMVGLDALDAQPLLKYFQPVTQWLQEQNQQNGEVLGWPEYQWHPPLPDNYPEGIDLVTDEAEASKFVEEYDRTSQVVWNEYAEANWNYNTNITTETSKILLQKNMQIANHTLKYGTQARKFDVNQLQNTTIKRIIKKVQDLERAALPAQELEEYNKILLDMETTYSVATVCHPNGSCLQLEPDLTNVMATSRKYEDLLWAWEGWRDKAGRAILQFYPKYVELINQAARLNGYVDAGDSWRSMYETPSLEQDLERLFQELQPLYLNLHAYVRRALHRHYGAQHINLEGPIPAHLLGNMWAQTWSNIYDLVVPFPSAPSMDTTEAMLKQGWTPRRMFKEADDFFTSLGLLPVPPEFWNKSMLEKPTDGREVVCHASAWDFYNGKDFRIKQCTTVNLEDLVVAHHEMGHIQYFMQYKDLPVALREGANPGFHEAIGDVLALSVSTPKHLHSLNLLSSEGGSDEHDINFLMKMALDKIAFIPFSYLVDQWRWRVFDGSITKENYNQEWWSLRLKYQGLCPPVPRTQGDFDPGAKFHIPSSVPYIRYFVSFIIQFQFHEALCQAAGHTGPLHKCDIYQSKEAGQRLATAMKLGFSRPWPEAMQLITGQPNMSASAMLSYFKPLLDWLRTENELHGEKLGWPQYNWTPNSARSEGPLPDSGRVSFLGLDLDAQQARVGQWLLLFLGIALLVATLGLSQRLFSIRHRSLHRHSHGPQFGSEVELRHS

Regarding `CCCCc1nc(Cl)c(CO)n1Cc1ccc(-c2ccccc2-c2nn[nH]n2)cc1` [Losartan], in the test on ACE-II, the pIC50 was 3.84 to 4.77.
Take YIHNNPAKGGLF: on ACE-1, the ACE-1 inhibition was determined as 91%.
